Assay: mn = molality of the nth substance listed, in mol/kg
Conditions: 101 kPa, Liquid

[Cl-].[Cl-].[Zn+2] [zinc chloride] + O
mass density [kg/m3]
Conditions | 288.15 K | 298.15 K | 308.15 K | 318.15 K
m1 = 0.1 | 1011.64 | 1009.38 | 1005.93 | 1002.03
m1 = 0.5 | 1058.86 | 1055.44 | 1047.95 | 1043.29
m1 = 1 | 1113.88 | 1106.55 | 1097.59 | 1090.83
m1 = 1.5 | 1160.53 | 1152.82 | 1142.54 | 1135.27

NCC(=O)O [2-aminoacetic acid] + O
Conditions | mass density [kg/m3]
288.15 K, m1 = 0.07326 | 1001.51
288.15 K, m1 = 0.1458 | 1003.85
288.15 K, m1 = 0.2326 | 1006.63
288.15 K, m1 = 0.2824 | 1008.21
288.15 K, m1 = 0.3277 | 1009.64
288.15 K, m1 = 0.4371 | 1013.07
298.15 K, m1 = 0.1536 | 1001.88
298.15 K, m1 = 0.2528 | 1004.96
298.15 K, m1 = 0.302 | 1006.47
298.15 K, m1 = 0.3469 | 1007.84
298.15 K, m1 = 0.4593 | 1011.25
308.15 K, m1 = 0.07746 | 993.053
308.15 K, m1 = 0.2534 | 998.473
308.15 K, m1 = 0.3017 | 999.939
308.15 K, m1 = 0.3466 | 1001.29
308.15 K, m1 = 0.4586 | 1004.65
318.15 K, m1 = 0.1525 | 994.942
318.15 K, m1 = 0.2564 | 998.093
318.15 K, m1 = 0.3091 | 999.679
318.15 K, m1 = 0.3656 | 1001.36
318.15 K, m1 = 0.4809 | 1004.79

Source: the NIST ThermoML archive (doi:10.1021/je8001464)
